Source: patent publication US7737136B2 (N.V. Organon, priority 2002, dated 2010)

target: T1, human progesterone receptor-B (Homo sapiens, UniProt P06401); assay: Progesterone receptor-B transactivation assay, progestagenic (agonist) activity, CHO-PRB-pMMTV-LUC 1E2-A2 cells; type: cell-based; details: not given
T1 construct: expressed in transfected cells; host or cells: Chinese hamster ovary (CHO) cells, line CHO-PRB-pMMTV-LUC 1E2-A2
T1 sequence (P06401 1-933): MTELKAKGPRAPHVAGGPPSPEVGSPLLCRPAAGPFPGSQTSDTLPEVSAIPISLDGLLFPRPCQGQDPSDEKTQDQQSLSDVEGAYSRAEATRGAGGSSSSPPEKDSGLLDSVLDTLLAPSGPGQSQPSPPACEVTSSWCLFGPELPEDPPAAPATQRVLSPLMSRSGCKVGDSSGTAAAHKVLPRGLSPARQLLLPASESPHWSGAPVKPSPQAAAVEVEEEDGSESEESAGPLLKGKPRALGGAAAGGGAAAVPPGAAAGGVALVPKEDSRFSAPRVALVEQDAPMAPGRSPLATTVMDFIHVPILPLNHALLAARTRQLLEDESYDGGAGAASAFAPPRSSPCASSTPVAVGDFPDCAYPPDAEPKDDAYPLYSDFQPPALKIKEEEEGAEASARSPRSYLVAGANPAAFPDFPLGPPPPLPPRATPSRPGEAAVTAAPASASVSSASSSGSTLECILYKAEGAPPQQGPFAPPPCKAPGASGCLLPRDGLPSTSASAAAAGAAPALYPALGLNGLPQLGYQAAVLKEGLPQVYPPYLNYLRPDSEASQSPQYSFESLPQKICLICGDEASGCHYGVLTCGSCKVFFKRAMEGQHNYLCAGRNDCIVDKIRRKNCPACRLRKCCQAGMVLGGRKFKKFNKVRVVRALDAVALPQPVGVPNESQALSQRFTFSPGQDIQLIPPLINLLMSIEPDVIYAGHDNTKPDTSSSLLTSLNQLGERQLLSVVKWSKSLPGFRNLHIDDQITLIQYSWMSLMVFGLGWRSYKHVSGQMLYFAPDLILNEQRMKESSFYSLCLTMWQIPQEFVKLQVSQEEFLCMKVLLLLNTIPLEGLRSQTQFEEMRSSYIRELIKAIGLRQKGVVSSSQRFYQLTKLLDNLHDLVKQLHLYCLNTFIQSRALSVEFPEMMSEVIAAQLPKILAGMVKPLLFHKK
Protocol: The (anti-)progestagenic activity of a compound of the invention (EC 50 and intrinsic activity) was determined in an in vitro bioassay of Chinese hamster ovary (CHO) cells stably transfected with the human progesterone receptor-B expression plasmid and with a reporter plasmid in which the MMTV-promoter is linked to the luciferase reporter gene. […] The cells were cultured with charcoal-treated supplemented defined bovine calf serum from Hyclone (Utah, USA) in Dulbecco's Modified Eagles Medium/Nutrient Mixture F-12 (DMEM/HAM F12 in ratio 1:1) from Gibco (Paisley, UK).

Row | Compound | EC50
1 | N[C@H]1CCCN2c3cc(F)ccc3Oc3ccccc3[C@H]12 (relative stereo) [Example 1, trans-7-Fluoro-2,3,4,14b-tetrahydro-1H-dibenzo[b,f]pyrido[1,2-d][1,4]oxazepine-1-amine] | 100 to 10000 nM
2 | O=C(CF)N[C@H]1CCCN2c3cc(Cl)ccc3Oc3ccccc3[C@H]12 (relative stereo) [Example 11, trans-N-(7-Chloro-2,3,4,14b-tetrahydro-1H-dibenzo[b,f]pyrido[1,2-d][1,4]oxazepin-1-yl)-2-fluoroacetamide] | 10 to 100 nM
3 | CCCN[C@H]1CCCN2c3cc(Cl)ccc3Oc3ccccc3[C@H]12 (relative stereo) [Example 37, trans-N-Propyl-7-chloro-2,3,4,14b-tetrahydro-1H-dibenzo[b,f]pyrido[1,2-d][1,4]oxazepine-1-amine] | 100 to 10000 nM

same assay, conditions: CHO cells stably transfected with human progesterone receptor-B and MMTV-luciferase reporter; read-out: Progestagenic activity EC50

Row | Compound | EC50
4 | NCC(=O)N[C@H]1CCCN2c3cc(Cl)ccc3Oc3ccccc3[C@H]12 (relative stereo) [Example 16, trans-2-Amino-N-(7-chloro-2,3,4,14b-tetrahydro-1H-dibenzo[b,f]pyrido[1,2-d][1,4]oxazepin-1-yl)acetamide] | 100 to 10000 nM
5 | S=CN[C@H]1CCCN2c3cc(Cl)ccc3Oc3ccccc3[C@H]12 (relative stereo) [Example 18, trans-N-(7-Chloro-2,3,4,14b-tetrahydro-1H-dibenzo[b,f]pyrido[1,2-d][1,4]oxazepin-1-yl)methanethioamide] | 100 to 10000 nM
6 | NCC(=S)N[C@H]1CCCN2c3cc(Cl)ccc3Oc3ccccc3[C@H]12 (relative stereo) [Example 27] | 100 to 10000 nM
7 | CN(C(=O)C(F)(F)F)[C@H]1CCCN2c3cc(Cl)ccc3Oc3ccccc3[C@H]12 (relative stereo) [Example 28, trans-N-(7-Chloro-2,3,4,14b-tetrahydro-1H-dibenzo[b,f]pyrido[1,2-d][1,4]oxazepin-1-yl)-2,2,2-trifluoro-N-methylacetamide] | 100 to 10000 nM
8 | O=C(N[C@H]1CCCN2c3cc(Cl)ccc3Oc3ccccc3[C@H]12)OCCl (relative stereo) [Example 30, Trans-(7-Chloro-2,3,4,14b-tetrahydro-1H-dibenzo[b,f]pyrido[1,2-d][1,4]oxazepin-1-yl)carbamic Acid Chloromethyl Ester] | 100 to 10000 nM
9 | CC(C)CN[C@H]1CCCN2c3cc(Cl)ccc3Oc3ccccc3[C@H]12 (relative stereo) [Example 36, trans-N-(2-Methylpropyl)-7-chloro-2,3,4,14b-tetrahydro-1H-dibenzo[b,f]pyrido[1,2-d][1,4]oxazepine-1-amine] | 100 to 10000 nM
10 | O=C(N[C@H]1CCCN2c3c(Cl)cccc3Oc3ccccc3[C@H]12)C(F)(F)F (relative stereo) [Example 42B] | 100 to 10000 nM
11 | CS(=O)(=O)N(c1cc2c(cc1Cl)N1CCC[C@H](NC(=O)C(F)(F)F)[C@H]1c1ccccc1O2)S(C)(=O)=O (relative stereo) [Example 44, trans-N-(7-Chloro-2,3,4,14b-tetrahydro-8-[bis(methylsulfonyl)amino]-1H-dibenzo[b,f]pyrido[1,2-d][1,4]oxazepin-1-yl)-2,2,2-trifluoroacetamide] | 100 to 10000 nM
12 | O=C(N[C@H]1CCCN2c3c(Br)cc(F)cc3Oc3ccccc3[C@H]12)C(F)(F)F (relative stereo) [Example 56, trans-N-(6-Bromo-8-fluoro-2,3,4,14b-tetrahydro-1H-dibenzo[b,f]pyrido[1,2-d][1,4]oxazepin-1-yl)-2,2,2-trifluoroacetamide] | 100 to 10000 nM

Now from value to compound:

Row | EC50 | Compound
13 | 100 to 10000 nM | N[C@H]1CCCN2c3cc(Cl)ccc3Oc3ccccc3[C@H]12 (relative stereo) [Example 3, trans-7-Chloro-2,3,4,14b-tetrahydro-1H-dibenzo[b,f]pyrido[1,2-d][1,4]oxazepine-1-amine]
14 | < 10 nM | O=C(N[C@H]1CCCN2c3cc(Cl)ccc3Sc3ccccc3[C@H]12)C(F)(F)F (relative stereo) [Example 6, trans-2,2,2-Trifluoro-N-(7-chloro-2,3,4,14b-tetrahydro-1H-dibenzo[b,f]pyrido[1,2-d][1,4]thiazepin-1-yl)acetamide]
15 | < 10 nM | FC(F)(F)C(=S)N[C@H]1CCCN2c3cc(Cl)ccc3Oc3ccccc3[C@H]12 (relative stereo) [Example 19]
16 | < 10 nM | FC(F)C(=S)N[C@H]1CCCN2c3cc(Cl)ccc3Oc3ccccc3[C@H]12 (relative stereo) [Example 23]
17 | < 10 nM | FC(F)(F)C(=S)N[C@H]1CCCN2c3ccccc3Oc3ccccc3[C@H]12 (relative stereo) [Example 25]
18 | < 10 nM | FC(F)(F)C(=S)N[C@H]1CCCN2c3c(ccc(Cl)c3Cl)Oc3ccccc3[C@H]12 (relative stereo) [Example 26]
19 | < 10 nM | O=C(N[C@H]1CCCN2c3c(ccc(Cl)c3Cl)Oc3ccccc3[C@H]12)C(F)(F)F (relative stereo) [Example 38B, trans-N-(6,7-Dichloro-2,3,4,14b-tetrahydro-1H-dibenzo[b,f]pyrido[1,2-d][1,4]oxazepin-1-yl)-2,2,2-trifluoroacetamide]
20 | 10 to 100 nM | O=C(N[C@H]1CCCN2c3cc(Cl)c(NS(=O)(=O)c4ccccc4)cc3Oc3ccccc3[C@H]12)C(F)(F)F (relative stereo) [Example 45, trans-N-(7-Chloro-2,3,4,14b-tetrahydro-8-[(phenylsulfonyl)amino]-1H-dibenzo[b,f]pyrido[1,2-d][1,4]oxazepin-1-yl)-2,2,2-trifluoroacetamide]
21 | 10 to 100 nM | CC(C)(C)OC(=O)Nc1cc2c(cc1Cl)N1CCC[C@H](NC(=O)C(F)(F)F)[C@H]1c1ccccc1O2 (relative stereo) [Example 46, trans-N-(7-Chloro-2,3,4,14b-tetrahydro-1-(2,2,2-trifluoroacetylamino)1H-dibenzo[b,f]pyrido[1,2-d][1,4]oxazepin-8-yl)carbamic Acid 1,1-dimethylethyl Ester]
22 | < 10 nM | CC(=O)N[C@H]1CCCN2c3c(ccc(Cl)c3Cl)Oc3ccccc3[C@H]12 (relative stereo) [Example 47, trans-N-(6,7-Dichloro-2,3,4,14b-tetrahydro-1H-dibenzo[b,f]pyrido[1,2-d][1,4]oxazepin-1-yl)acetamide]
23 | < 10 nM | O=C(N[C@H]1CCCN2c3c(Br)cccc3Oc3ccccc3[C@H]12)C(F)(F)F (relative stereo) [Example 51, trans-N-(6-Bromo-2,3,4,14b-tetrahydro-1H-dibenzo[b,f]pyrido[1,2-d][1,4]oxazepin-1-yl)-2,2,2-trifluoroacetamide]
24 | < 10 nM | CC(=O)c1cccc2c1N1CCC[C@H](NC(=O)C(F)(F)F)[C@H]1c1ccccc1O2 (relative stereo) [Example 52, trans-N-(6-Acetyl-2,3,4,14b-tetrahydro-1H-dibenzo[b,f]pyrido[1,2-d][1,4]oxazepin-1-yl)-2,2,2-trifluoroacetamide]
25 | < 10 nM | N#Cc1cccc2c1N1CCC[C@H](NC(=O)C(F)(F)F)[C@H]1c1ccccc1O2 (relative stereo) [Example 53, trans-2,3,4,14b-Tetrahydro-1-[(trifluoroacetyl)amino]-1H-dibenzo[b,f]pyrido[1,2-d][1,4]oxazepine-6-carbonitrile]
26 | < 10 nM | C=Cc1cccc2c1N1CCC[C@H](NC(=O)C(F)(F)F)[C@H]1c1ccccc1O2 (relative stereo) [Example 54, trans-N-(6-Ethenyl-2,3,4,14b-tetrahydro-1H-dibenzo[b,f]pyrido[1,2-d][1,4]oxazepin-1-yl)-2,2,2-trifluoroacetamide]
27 | 10 to 100 nM | COc1cccc2c1N1CCC[C@H](NC(=O)C(F)(F)F)[C@H]1c1ccccc1O2 (relative stereo) [Example 55, trans-N-(2,3,4,14b-Tetrahydro-6-methoxy-1H-dibenzo[b,f]pyrido[1,2-d][1,4]oxazepin-1-yl)-2,2,2-trifluoroacetamide]
28 | < 10 nM | CC(=O)c1cc(F)cc2c1N1CCC[C@H](NC(=O)C(F)(F)F)[C@H]1c1ccccc1O2 (relative stereo) [Example 57, trans-N-(6-Acetyl-8-fluoro-2,3,4,14b-tetrahydro-1H-dibenzo[b,f]pyrido[1,2-d][1,4]oxazepin-1-yl)-2,2,2-trifluoroacetamide]
29 | < 10 nM | N#Cc1cc(F)cc2c1N1CCC[C@H](NC(=O)C(F)(F)F)[C@H]1c1ccccc1O2 (relative stereo) [Example 58, trans-8-Fluoro-2,3,4,14b-tetrahydro-1-[(trifluoroacetyl)amino]-1H-dibenzo[b,f]pyrido-[1,2-d][1,4]oxazepine-6-carbonitrile]
